We go through five molecules from patent US10851043B1, “Compound for fatty acid synthase inhibition” (KANNUR UNIVERSITY, priority 2019, dated 2020).

The test system of data set [1] is A549 lung carcinoma cells. Kind of data set: In-vitro anti-proliferative property on cultured A549 cells (MTT assay). The data set is classed as cell-based. To be noted: for IC50 / viability at 6.25 µg/mL / viability at 12.5 µg/mL / viability at 25 µg/mL / viability at 50 µg/mL / viability at 100 µg/mL: Homo sapiens; for IC50: A549, 24 h, read-out: IC50 anti-proliferative activity against A549 cells; for IC50 / IC50 anti-proliferative activity against A549 cells: MTT; for viability at 6.25 µg/mL / viability at 12.5 µg/mL / viability at 25 µg/mL / viability at 50 µg/mL / viability at 100 µg/mL / Percentage Viability / IC50 anti-proliferative activity against A549 cells: 24 hours; for viability at 6.25 µg/mL / viability at 12.5 µg/mL / viability at 25 µg/mL / viability at 50 µg/mL / viability at 100 µg/mL: read-out: Percentage Viability. How it is done: A549 lung carcinoma cells were maintained in Dulbecco's modified eagles media (Himedia, India) supplemented with 10% FBS (Invitrogen, India) and grown to confluence at 37° C. and 5% CO2 in a humidified atmosphere using a CO2 incubator (NBS, Eppendorf, Germany). The cells were trypsinized (500 μL of 0.025% trypsin in PBS/0.5 mM EDTA solution (Himedia, India) for 2 minutes and transferred to T flasks under aseptic condition. Test compounds were added to grown cells with a final concentration of 6.25, 12.5, 25, 50, 100 μg/mL from a stock of 1 mg/mL and incubated for 24 hours. The % difference in viability was determined by standard MTT assay (Arung et al. 2000) after 24 hours of incubation. Viability percentage was calculated using the Formula, % viability=(OD of Test/OD of Control)×100

Data set [2] relates to FAS I enzyme from bovine liver. Kind of data set: FAS I assay (NADPH oxidation at 340 nm). The format is biochemical, Indian water buffalo. To be noted: for Average ΔC (change in concentration of NADPH): control 0.051383. How it is done:
Crude preparation of FAS I enzyme was made according to modified protocol of Dulter et al. (1971). Liver from freshly slaughtered Indian water buffalo was collected and transported in ice bucket and kept at 4° C. till processing. The liver was processed at the earliest by removing connective tissues and sliced into small pieces. Using a blender, about 750 g of liver was minced to form a suspension with 0.05 M potassium phosphate buffer pH 7.4 containing 1 mM EDTA to make up to a volume of 2.5 liters. The thick solution was centrifuged at 7500×g for 20 minutes to remove meat debris and the supernatant obtained was further centrifuged at 30000×g for 30 minutes to get a translucent solution. The supernatant was further diluted to specific volume using 0.05 M Potassium phosphate buffer (pH 7.4) with 1 mM EDTA and brought initially to 10% and then to 40% saturation with solid ammonium sulfate at 4° C. The 40% ammonium sulfate fraction was centrifuged and protein precipitate was re-dissolved in 0.05 mM Tris HCl buffer, pH 7.4, dialyzed against same buffer. The FAS I enzyme was further purified by ion exchange chromatography with Diethylaminoethyl (DEAE) cellulose column as described above (Dulter et al. 1971).
FAS assay for FAS I enzyme was performed according to a modified process of Li et al. 2002. Crude protein was made up to a concentration of 0.5 mg/mL of protein and used for the assay. Assay was carried out in 96 well plates with the final working volume of 100 μL. Compounds to be tested were incubated with previously made crude protein extract for 30 minutes at 25° C. 50 μL of this mixture was added to 50 of reaction mixture containing 1 mM each of malonyl CoA and Nicotinamide adenine dinucleotide phosphate (NADPH), 40 μM acetyl CoA, and 2 mM Dithiothreitol (DTT) in phosphate buffer (250 mM).
The microplate was read immediately for 10 minutes at 340 nm. FAS activity was calculated by subtracting the optical density (OD) value obtained after 1 minute from the OD value obtained after 10 minutes. FAS activity was calculated and compared with that of control and test compounds. Dimethyl sulfoxide (DMSO) was taken as control as it was used to dilute the compounds. […] The negative control consisted of protein plus reaction buffer. Another control consisted of buffer reaction without protein. The IC50 was determined by linear regression. FAS activity was determined by the rate of oxidation of NADPH to NADP which was monitored at 340 nm. The change in concentration of NADPH during oxidation was calculated using the following equation: ΔC=ΔA/E
Where, ΔC was change in the concentration of NADPH, ΔA was change in absorbance, and E was extinction coefficient of NADPH (E340 nm=6.22 mM^−1·cm^−1). FAS activity was expressed as n mol NADPH oxidized/min/mg protein.

The next data set deals with Bacterial FAS II enzyme. In words: FAS II assay (NADPH oxidation at 340 nm). The data set is classed as biochemical, Bacillus subtilis. To be noted: for Average ΔC (change in concentration of NADPH): control 0.05037. Here is the method:
Crude FAS containing protein fraction was isolated according to the modified protocol of Ahmad et al. (1981). Stock culture of Bacillus subtilis was inoculated in 100 mL LB broth pH 7.2 and cultured for 24 hours at room temperature. It was used for further inoculation of four 1000 mL flasks with same media and culture conditions. The flasks were placed in a rotator shaker to ensure adequate suspension of cells. Bacteria were harvested during the late-exponential phase of growth by centrifugation at 10000×g for 10 minutes and washed twice with 50 mM sodium phosphate buffer (pH 7.0) to provide cell pastes which were stored at -20° C. until use. Frozen cell pastes (25-35 g) were thawed and suspended in 50 mM sodium phosphate buffer (pH 7.0). The cell suspension was disrupted by sonication (12 W, 6×15 pulses with 15 second intervals) in 2 mL Eppendorf tubes containing 1.5 mL of cell suspension, supplemented with lysozyme (250 μg/mL) in a sonicator, operating at maximum power output while maintaining the temperature below 4° C. Unbroken cells and cell debris were removed by centrifugation at 30000×g for 30 minutes at 4° C. The […] were re-suspended in 50 mM sodium phosphate buffer (pH 7.0) and made up to appropriate volume and subjected to ammonium sulphate precipitation. Solid ammonium sulphate was added and the protein precipitate at 40-60% saturation was collected by centrifugation, dialyzed and used for further assay. FAS assay for FAS I enzyme was performed according to a modified process of Li et al. 2002. Crude protein was made up to a concentration of 0.5 mg/mL of protein and used for the assay. Assay was carried out in 96 well plates with the final working volume of 100 μL. […] The microplate was read immediately for 10 minutes at 340 nm. FAS activity was calculated by subtracting the optical density (OD) value obtained after 1 minute from the OD value obtained after 10 minutes. FAS activity was calculated and compared with that of control and test compounds. Dimethyl sulfoxide (DMSO) was taken as control as it was used to dilute the compounds. […] The negative control consisted of protein plus reaction buffer. Another control consisted of buffer reaction without protein. The IC50 was determined by linear regression. FAS activity was determined by the rate of oxidation of NADPH to NADP which was monitored at 340 nm. The change in concentration of NADPH during oxidation was calculated using the following equation: ΔC=ΔA/E Where, ΔC was change in the concentration of NADPH, ΔA was change in absorbance, and E was extinction coefficient of NADPH ([…] nm=6.22 mM^-1·cm^-1). FAS activity was expressed as n mol NADPH oxidized/min/mg protein. Assay using partially purified enzyme from Bacillus subtilis was also performed to verify the FAS II inhibitory activity of compound of Formula II. […] The graph was plotted with change in concentration of NADP to NADPH against time. Each point in graph was the concentration of NADPH measured on a spectrophotometer at 340 nm (FIGS. 6 and 7 for FAS II and FAS I respectively).

Data set [3] has as its target FAS prepared from Saccharomyces cerevisiae (Saccharomyces cerevisiae, UniProt P07149+P19097). To be noted: Li et al. (2002), cited from earlier work.
Data set [4] is described as follows: In-vitro cytotoxic effect on cultured L929 cells (MTT assay). The format is cell-based. To be noted: mouse. Here is the method: (§1) Cultures of L929 (Fibroblast cells) were maintained in Dulbecco's modified eagles media supplemented with 10% fetal bovine serum (FBS) and grown to confluence at 37° C. and 5% CO2 in a humidified atmosphere using a CO2 incubator. The cells were trypsinised (500 μL of 0.025% Trypsin in PBS/0.5 mM Ethylene diamine tetraacetic acid (EDTA) solution for 2 minutes and passed to T flasks under complete aseptic conditions. Test compounds were added to grown cells at a final concentration of 6.25, 12.5, 25, 50 and 100 μg/mL from a stock of 1 mg/mL and incubated for 24 hours. The percentage difference in viability was determined by standard MTT assay after 24 hours of incubation. The MTT assay is a colorimetric assay for assessing cell metabolic activity. NAD (P) H-dependent cellular oxidoreductase enzymes under defined conditions, reflect the number of viable cells present.
(§2) Viability percentage was calculated using the Formula, % viability=(OD of Test/OD of control)×100, • where control OD was 0.993.

The subject of a further data set is L929 (Fibroblast cells). The description is as above. The format is cell-based. To be noted: MTT, 24 hours. How it is done:
as §1, §2

≈ marks a conversion by molar mass, not a printed value.

FAS prepared from Saccharomyces cerevisiae, sequence (P07149 whole entry): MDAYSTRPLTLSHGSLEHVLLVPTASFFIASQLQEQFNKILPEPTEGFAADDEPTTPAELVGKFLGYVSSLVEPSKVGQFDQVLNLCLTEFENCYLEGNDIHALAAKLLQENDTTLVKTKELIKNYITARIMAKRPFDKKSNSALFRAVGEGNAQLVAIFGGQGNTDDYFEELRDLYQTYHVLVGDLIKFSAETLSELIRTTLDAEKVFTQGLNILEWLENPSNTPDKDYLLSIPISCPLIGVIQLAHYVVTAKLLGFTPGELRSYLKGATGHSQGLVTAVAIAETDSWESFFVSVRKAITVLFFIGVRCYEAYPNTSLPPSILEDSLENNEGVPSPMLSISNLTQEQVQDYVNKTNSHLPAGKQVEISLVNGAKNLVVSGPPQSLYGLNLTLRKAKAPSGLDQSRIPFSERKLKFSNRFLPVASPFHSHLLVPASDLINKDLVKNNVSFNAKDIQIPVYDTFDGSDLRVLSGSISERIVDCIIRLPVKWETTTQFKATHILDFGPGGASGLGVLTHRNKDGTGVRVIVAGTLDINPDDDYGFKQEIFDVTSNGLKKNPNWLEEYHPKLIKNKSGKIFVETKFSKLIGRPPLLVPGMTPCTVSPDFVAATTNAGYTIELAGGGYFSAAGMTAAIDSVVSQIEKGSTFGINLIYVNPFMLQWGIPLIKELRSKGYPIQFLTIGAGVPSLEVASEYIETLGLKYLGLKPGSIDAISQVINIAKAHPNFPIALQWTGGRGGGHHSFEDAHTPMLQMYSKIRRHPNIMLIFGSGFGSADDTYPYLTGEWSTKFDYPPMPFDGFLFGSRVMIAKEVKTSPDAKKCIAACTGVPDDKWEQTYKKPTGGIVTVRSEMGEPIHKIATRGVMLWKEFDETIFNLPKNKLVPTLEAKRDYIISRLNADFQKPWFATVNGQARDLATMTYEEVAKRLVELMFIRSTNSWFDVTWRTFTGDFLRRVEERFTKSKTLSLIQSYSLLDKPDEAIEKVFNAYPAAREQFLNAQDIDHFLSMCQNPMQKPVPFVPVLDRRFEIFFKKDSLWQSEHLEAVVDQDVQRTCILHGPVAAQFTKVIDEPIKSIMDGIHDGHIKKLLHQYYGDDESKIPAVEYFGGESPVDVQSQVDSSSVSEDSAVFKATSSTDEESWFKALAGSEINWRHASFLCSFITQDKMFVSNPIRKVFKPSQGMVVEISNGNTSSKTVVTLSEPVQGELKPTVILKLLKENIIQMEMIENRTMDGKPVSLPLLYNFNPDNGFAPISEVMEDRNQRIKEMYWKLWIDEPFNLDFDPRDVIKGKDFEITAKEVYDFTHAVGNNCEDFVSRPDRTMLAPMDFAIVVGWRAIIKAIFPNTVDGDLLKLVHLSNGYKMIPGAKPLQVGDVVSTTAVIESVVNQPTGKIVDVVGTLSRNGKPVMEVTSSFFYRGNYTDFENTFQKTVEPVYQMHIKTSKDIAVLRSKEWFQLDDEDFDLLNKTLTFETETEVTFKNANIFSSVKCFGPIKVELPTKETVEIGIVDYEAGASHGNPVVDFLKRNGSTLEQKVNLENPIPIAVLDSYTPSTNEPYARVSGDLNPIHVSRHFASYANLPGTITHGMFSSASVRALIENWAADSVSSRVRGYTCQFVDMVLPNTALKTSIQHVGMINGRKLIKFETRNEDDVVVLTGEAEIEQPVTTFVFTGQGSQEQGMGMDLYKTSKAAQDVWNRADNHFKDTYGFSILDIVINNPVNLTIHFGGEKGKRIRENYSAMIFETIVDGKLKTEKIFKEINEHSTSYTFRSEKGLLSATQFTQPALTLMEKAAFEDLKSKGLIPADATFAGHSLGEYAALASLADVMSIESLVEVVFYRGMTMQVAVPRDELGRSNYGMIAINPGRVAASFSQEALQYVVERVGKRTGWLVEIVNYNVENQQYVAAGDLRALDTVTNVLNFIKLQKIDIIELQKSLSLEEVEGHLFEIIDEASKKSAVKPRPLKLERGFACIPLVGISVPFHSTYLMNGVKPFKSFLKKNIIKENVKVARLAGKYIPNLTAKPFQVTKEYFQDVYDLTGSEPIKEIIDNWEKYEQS
FAS prepared from Saccharomyces cerevisiae, sequence (P19097 whole entry): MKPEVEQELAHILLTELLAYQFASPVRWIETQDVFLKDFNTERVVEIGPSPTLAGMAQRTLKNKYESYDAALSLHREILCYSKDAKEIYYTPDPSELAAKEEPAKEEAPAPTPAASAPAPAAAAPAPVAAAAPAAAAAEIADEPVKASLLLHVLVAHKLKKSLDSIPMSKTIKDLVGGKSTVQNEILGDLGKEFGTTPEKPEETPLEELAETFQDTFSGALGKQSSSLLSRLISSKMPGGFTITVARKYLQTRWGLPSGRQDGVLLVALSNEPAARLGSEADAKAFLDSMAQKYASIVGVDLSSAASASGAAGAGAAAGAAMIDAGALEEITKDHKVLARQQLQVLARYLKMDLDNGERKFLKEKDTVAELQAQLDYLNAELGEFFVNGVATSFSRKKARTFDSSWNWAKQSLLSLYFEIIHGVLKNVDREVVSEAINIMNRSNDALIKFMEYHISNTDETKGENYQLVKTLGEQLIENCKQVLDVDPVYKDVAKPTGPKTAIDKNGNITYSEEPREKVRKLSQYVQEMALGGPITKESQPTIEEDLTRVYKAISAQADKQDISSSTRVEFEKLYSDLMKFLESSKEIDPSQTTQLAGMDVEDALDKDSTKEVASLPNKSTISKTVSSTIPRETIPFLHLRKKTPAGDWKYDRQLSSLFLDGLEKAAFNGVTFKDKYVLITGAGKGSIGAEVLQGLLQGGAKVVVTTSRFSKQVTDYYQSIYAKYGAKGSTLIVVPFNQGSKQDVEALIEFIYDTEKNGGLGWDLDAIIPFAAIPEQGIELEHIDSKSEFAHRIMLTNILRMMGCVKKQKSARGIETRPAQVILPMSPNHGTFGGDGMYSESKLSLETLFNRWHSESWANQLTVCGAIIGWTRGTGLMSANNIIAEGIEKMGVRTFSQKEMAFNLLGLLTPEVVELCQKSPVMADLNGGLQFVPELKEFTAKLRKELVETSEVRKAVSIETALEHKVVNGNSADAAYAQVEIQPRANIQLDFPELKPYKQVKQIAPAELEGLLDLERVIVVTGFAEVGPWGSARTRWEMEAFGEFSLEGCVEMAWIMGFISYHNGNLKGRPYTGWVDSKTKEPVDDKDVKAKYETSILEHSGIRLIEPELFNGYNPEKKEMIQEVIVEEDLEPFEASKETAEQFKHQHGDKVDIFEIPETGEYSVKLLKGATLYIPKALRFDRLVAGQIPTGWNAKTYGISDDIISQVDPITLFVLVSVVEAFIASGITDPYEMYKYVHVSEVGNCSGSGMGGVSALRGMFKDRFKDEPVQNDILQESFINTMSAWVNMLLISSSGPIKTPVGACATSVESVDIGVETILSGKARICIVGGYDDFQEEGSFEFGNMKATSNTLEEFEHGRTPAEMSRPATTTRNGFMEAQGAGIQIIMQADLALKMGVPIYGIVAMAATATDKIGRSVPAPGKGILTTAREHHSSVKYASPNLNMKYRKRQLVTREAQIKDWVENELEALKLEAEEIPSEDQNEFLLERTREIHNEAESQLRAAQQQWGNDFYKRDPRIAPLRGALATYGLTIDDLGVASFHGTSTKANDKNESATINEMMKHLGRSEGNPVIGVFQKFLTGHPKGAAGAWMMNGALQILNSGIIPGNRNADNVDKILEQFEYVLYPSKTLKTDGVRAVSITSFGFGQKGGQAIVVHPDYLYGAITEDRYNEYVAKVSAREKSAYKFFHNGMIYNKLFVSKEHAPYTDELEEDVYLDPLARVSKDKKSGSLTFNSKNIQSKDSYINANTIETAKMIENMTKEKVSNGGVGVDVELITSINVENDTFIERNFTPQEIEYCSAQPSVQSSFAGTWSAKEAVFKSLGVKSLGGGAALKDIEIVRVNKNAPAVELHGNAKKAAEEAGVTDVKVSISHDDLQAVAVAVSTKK

As for `C/C=C/C/C=C/CCC(=O)[C@H]1O[C@H]1C(N)=O` [Cerulenin], the IC50 (usually the point on the concentration scale where inhibition reaches its midpoint) in data set [1] was 86.4 µg/mL (≈ 387 µM). The viability (as a rule, a per cent measure of how many cells are alive, often set against a control) at 6.25 µg/mL in data set [1] (A549, 6.25 μg/mL) was found to be 100%. Moreover, the viability at 12.5 µg/mL in data set [1] (A549, 12.5 μg/mL) was found to be 96.9%. Moreover, the viability at 25 µg/mL in data set [1] (A549, 25 μg/mL) came out at 72%. Further, the viability at 50 µg/mL in data set [1] (A549, 50 μg/mL) turned out to be 62.2%. Besides, the viability at 100 µg/mL in data set [1] (A549, 100 μg/mL) turned out to be 48.1%. In addition, in data set [2], the “Inhibition compared to control” value is reported as 36.49% and the “Average ΔC (change in concentration of NADPH)” value is 0.03248. In addition, in the data set with Bacterial FAS II enzyme, the “Inhibition compared to control” value is given as 21.48% and the “Average ΔC (change in concentration of NADPH)” value came to 0.03955.

Consider `O=Cc1cc(-c2coc3cc(O)cc(O)c3c2=O)ccc1O` [3′-Formylgenistein], for which the 50% inhibitory concentration (IC50) in data set [3] (read-out: IC50 against FAS (converted)) was 7.71 µM.

Regarding `C=C1C(=O)OC(CCCCCCCC)C1C(=O)O` (stereo not drawn) [C75], the “Percentage Viability” value is on record as 100.0% in data set [1] (A549, 6.25 μg/mL); 100.0% in data set [1] (A549, 12.5 μg/mL); 80.110% in data set [1] (A549, 25 μg/mL); 66.483% in data set [1] (A549, 50 μg/mL); 55.985% in data set [1] (A549, 100 μg/mL). The “IC50 anti-proliferative activity against A549 cells” value in data set [1] turned out to be 99.034 µg/mL (≈ 389 µM). Moreover, the “Inhibition compared to control” value was determined as 29.60% in data set [2] and 15.67% in the data set on Bacterial FAS II enzyme. Also, the “Average ΔC (change in concentration of NADPH)” value is reported as 0.03612 in data set [2] and 0.04248 in the data set with Bacterial FAS II enzyme.

In data set [4], `CC(C)[C@H](O)C(=O)/C(O)=C/[C@@H](N)/C=C\CCCC[C@H]1C=C[C@@H](O)C=C1` [Compound of Formula II, (3S,5Z,7S,8Z)-7-amino-3,5-dihydroxy-2-methyl-13-[(1s,4s)-4-hydroxycyclohexa-2,5-dien-1-yl]trideca-5,8-dien-4-one] had a viability at 24 h, 6.25 μg/mL of 90.8%; a viability at 24 h, 12.5 μg/mL of 85.8%; a viability at 24 h, 25 μg/mL of 74.7%; a viability at 24 h, 50 μg/mL of 64.3%. This molecule gave a viability at 24 h, 100 μg/mL in data set [4] of 55.8%. In addition, the “LD50 against L929 cell lines” value in the data set on L929 (Fibroblast cells) is “about 89.65 μg/mL”. For the same molecule, in data set [1], the 50% inhibitory concentration (IC50) was in the range of 74 to 78 µg/mL and the “IC50 anti-proliferative activity against A549 cells” value was found to be 76.034 µg/mL. Also, the viability at 6.25 µg/mL in data set [1] (A549, 6.25 μg/mL) came out at 92.3%. For the same molecule, the viability at 12.5 µg/mL in data set [1] (A549, 12.5 μg/mL) was 89.7%. For the same molecule, the viability at 25 µg/mL in data set [1] (A549, 25 μg/mL) was 67.4%. Besides, the viability at 50 µg/mL in data set [1] (A549, 50 μg/mL) was 55.7%. Further, the viability at 100 µg/mL in data set [1] (A549, 100 μg/mL) was found to be 42.6%. Besides, in data set [2], the “Inhibition compared to control” value was determined as 41.49% and the “Average ΔC (change in concentration of NADPH)” value worked out at 0.03006. Further, in the data set with Bacterial FAS II enzyme, the “Inhibition compared to control” value was 30.54% and the “Average ΔC (change in concentration of NADPH)” value is given as 0.03498.

For the molecule `C[C@@H]1O[C@@H](Oc2cc3c(=O)oc4c(O)c(O)cc5c(=O)oc(c2O)c3c45)[C@H](O)[C@H](O)[C@H]1O` [ellagic acid 4-O-alpha-1-rhamnopyranoside], the “IC50 against FAS” value in data set [3] is reported as 7.5 microgram/mL.
